In paper PMC7949122 (The Journal of Biological Chemistry, 2021):
Non-standard residues stand in square brackets, D forms with d. Residues, ends and D or L forms follow the SMILES beside them. No end group written: not given here. Hyp = O=C(O)[C@@H]1C[C@@H](O)CN1; 2Thi = N[C@@H](Cc1cccs1)C(=O)O; Gly(N-cHex) = O=C(O)CNC1CCCCC1

Experiments:
[1] = target: T1, mutant human B2R(Ø) lacking AltB2R expression (Homo sapiens, UniProt P30411); experiment: Competitive displacement of [3H]-BK binding, living B2R(Ø)-transfected HEK293A cells; details: n = 3
T1 construct: expressed in transfected cells; host or cells: HEK293A
T1 sequence (P30411 1-391): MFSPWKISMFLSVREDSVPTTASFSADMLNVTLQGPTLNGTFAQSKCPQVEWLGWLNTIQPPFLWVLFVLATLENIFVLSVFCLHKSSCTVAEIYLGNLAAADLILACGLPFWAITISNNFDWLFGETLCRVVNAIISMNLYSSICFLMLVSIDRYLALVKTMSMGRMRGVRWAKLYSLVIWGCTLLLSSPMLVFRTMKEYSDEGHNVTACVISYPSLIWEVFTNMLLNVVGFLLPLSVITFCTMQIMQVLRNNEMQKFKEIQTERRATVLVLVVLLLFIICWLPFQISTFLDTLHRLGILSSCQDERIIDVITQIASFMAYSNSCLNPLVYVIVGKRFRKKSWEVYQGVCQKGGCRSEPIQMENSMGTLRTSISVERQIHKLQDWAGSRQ
Protocol: Black and gray, negative controls with secondary antibodies only; blue, ^FlagB2R transfected cells; red, ^FlagB2R^(Ø) transfected cells. […] Reported Kd are expressed in nM. Bmax is expressed in fmol/10^6 cells.
Radioligand competition binding assay was performed using adherent living HEK293A cells transiently transfected with B2R or B2R^(Ø), as we previously described ([54]). […] Saturation binding assays were performed using adherent living HEK293A cells transiently transfected with B2R or B2R^(Ø). […] After the incubation time, cells were washed twice with ice-cold PBS, lysed with 200 μl of 0.1 N sodium hydroxide, and transferred into scintillation vials containing 4 ml scintillation liquid. The radioactivity was measured with a β-counter and data were analyzed using GraphPad 6.01 (GraphPad Software, Inc).

[2] = target: T1, mutant human B2R(Ø) lacking AltB2R expression; experiment: Inositol phosphate (IP1) production, IP-One Gq assay (FRET), B2R(Ø)-transfected HEK293A cells (lacking AltB2R); type: cell-based; details: for Emax: HEK293-A, Emax in B2R(Ø) versus B2R cells, read-out: reduction of efficacy (Emax) for IP1 formation in cells without AltB2R expression
Protocol: This construct is a monocistronic version of B2R with the mutation C168T. In this mutant, a premature stop codon is introduced in the AltB2R coding sequence (Q11stop) in a manner synonymous for B2R (L56 L). Thus, the B2R encodes B2R and AltB2R, whereas mutant B2R^(Ø) encodes only B2R.
(§1) To consolidate the western blot data, AlphaLISA assays were also conducted in parallel in the same cell lines for the quantitative analyses of B2R-stimulated ERK1/2 phosphorylation (Fig. 5, B and C).
(§2) Quantitative densitometry analysis of pERK1/2 levels over time (top right). pERK/total ERK ratios were calculated for each time point.
HeLa, HEK293T, and HEK293A cells were maintained in Dulbecco's modified Eagle's medium (DMEM) containing 10% fetal bovine serum (FBS) (Wisent, #080-450) and 1% antibiotic-antimycotic (Wisent, #450-115-EL) under standard conditions. HEK293A cells were transiently transfected with the pcDNA3.1-vector containing the cDNA of human B2R or B2R^(Ø), using polyethylenimine (PEI) or JetPrime (Polyplus). HeLa cells were transiently transfected with B2R and AltB2R constructs using GeneCellin (Bulldog Bio Inc) or JetPrime (Polyplus) transfection reagent, as per the manufacturer’s instructions, and incubated 24 h at 37 °C, unless otherwise stated.
Inositol monophosphate (IP1) production was determined using the IP-One Gq assay kits (Cisbio, #62IPAPEB), according to the manufacturer's instructions. Fluorescence resonance energy transfer (FRET) signals were measured with a Tecan M1000 plate reader.

human B2R (Gαq) = target: T2, human B2R (Gαq) (Homo sapiens, UniProt P30411); experiment: BRET G protein coupling Gαq-RLuc2/GFP10-Gγ1, B2R-transfected HEK293A cells; type: cell-based; details: HEK293-A; relative to maximum B2R-induced BRET response; mean ± SD, n = 3; †p < 0.05 vs B2R(Ø); read-out: Emax, Gαq/Gγ1 dissociation, B2R
T2 construct: expressed in transfected cells; host or cells: HEK293A
T2 sequence (P30411 1-391): T1 sequence (P30411 1-391)
Excerpt: (§3) To test this hypothesis, we used live-cell bioluminescence resonance energy transfer (BRET) measurements to monitor the activation of G proteins by B2R. HEK293A cells were cotransfected with vectors coding for Gαq-RlucII or Gαi2/3-RlucII, Gβ, GFP10-Gγ1, and B2R or B2R^(Ø). In this experimental setting, the dissociation of Gαq-RlucII or Gαi2/3-RlucII from GFP10-Gγ1 results in a decrease of BRET signals. BRET data in Figure 6, A–C are presented relative to the maximum B2R-induced BRET response.
(§4) D, β-arrestin2 recruitment at the plasma membrane after stimulation with NG291 in HEK293A cells transfected with B2R and B2R^(Ø) by following BRET proximity of β-arr2-RLuc2 and rGFP-CAAX. […] Note.
(§5) BRET assays were performed as previously described ([56]). Briefly, HEK293A cells were grown in 96-well plates for 48 h after transient transfection with 10 μg BRET constructs (Gαq-RLuc2, Gβ1, and GFP10-Gγ1) (Gαi2-Rluc2, Gβ1, and GFP10-Gγ1) (Gαi3-Rluc2, Gβ1, and GFP10-Gγ1) (β-arrestin2-Rluc2 and rGFP-CAAX) and B2R or B2R^(Ø). Cells were washed twice with stimulation buffer (10 mM HEPES pH 7.4, 1 mM CaCl2, 0.5 mM MgCl2, 4.2 mM KCl, 146 mM NaCl, 5.5 mM glucose) and incubated for 1 h in 80 μl stimulation buffer at room temperature. […] BRET readings were collected in the […] (Rluc2) and […] (GFP10) windows, and BRET signal was calculated as a ratio of GFP10 on Rluc2. […]

[3] = target: T3, mutant human B2R(Ø) lacking AltB2R expression (Gαq) (Homo sapiens, UniProt P30411); experiment: BRET G protein coupling Gαq-RLuc2/GFP10-Gγ1, B2R(Ø)-transfected HEK293A cells; type: cell-based; details: HEK293-A; relative to maximum B2R-induced BRET response; mean ± SD, n = 3; read-out: Emax, Gαq/Gγ1 dissociation, B2R(Ø)
T3 construct: expressed in transfected cells; host or cells: HEK293A
T3 sequence (P30411 1-391): T1 sequence (P30411 1-391)
Excerpt: as §3, §4, §5

human B2R (Gαi2) = target: T4, human B2R (Gαi2) (Homo sapiens, UniProt P30411); experiment: BRET G protein coupling Gαi2-RLuc2/GFP10-Gγ1, B2R-transfected HEK293A cells; type: cell-based; details: HEK293-A; relative to maximum B2R-induced BRET response; mean ± SD, n = 4; ††p < 0.01 vs B2R(Ø); read-out: Emax, Gαi2/Gγ1 dissociation, B2R
T4 construct: expressed in transfected cells; host or cells: HEK293A
T4 sequence (P30411 1-391): T1 sequence (P30411 1-391)
Excerpt: as §3, §4, §5

[4] = target: T5, mutant human B2R(Ø) lacking AltB2R expression (Gαi2) (Homo sapiens, UniProt P30411); experiment: BRET G protein coupling Gαi2-RLuc2/GFP10-Gγ1, B2R(Ø)-transfected HEK293A cells; type: cell-based; details: HEK293-A; relative to maximum B2R-induced BRET response; mean ± SD, n = 4; read-out: Emax, Gαi2/Gγ1 dissociation, B2R(Ø)
T5 construct: expressed in transfected cells; host or cells: HEK293A
T5 sequence (P30411 1-391): T1 sequence (P30411 1-391)
Excerpt: as §3, §4, §5

human B2R (Gαi3) = target: T6, human B2R (Gαi3) (Homo sapiens, UniProt P30411); experiment: BRET G protein coupling Gαi3-RLuc2/GFP10-Gγ1, B2R-transfected HEK293A cells; type: cell-based; details: HEK293-A; relative to maximum B2R-induced BRET response; mean ± SD, n = 4; †p < 0.05 vs B2R(Ø); read-out: Emax, Gαi3/Gγ1 dissociation, B2R
T6 construct: expressed in transfected cells; host or cells: HEK293A
T6 sequence (P30411 1-391): T1 sequence (P30411 1-391)
Excerpt: as §3, §4, §5

[5] = target: T7, mutant human B2R(Ø) lacking AltB2R expression (Gαi3) (Homo sapiens, UniProt P30411); experiment: BRET G protein coupling Gαi3-RLuc2/GFP10-Gγ1, B2R(Ø)-transfected HEK293A cells; type: cell-based; details: HEK293-A; relative to maximum B2R-induced BRET response; mean ± SD, n = 4; read-out: Emax, Gαi3/Gγ1 dissociation, B2R(Ø)
T7 construct: expressed in transfected cells; host or cells: HEK293A
T7 sequence (P30411 1-391): T1 sequence (P30411 1-391)
Excerpt: as §3, §4, §5

human B2R (β-arrestin2) = target: T8, human B2R (β-arrestin2) (Homo sapiens, UniProt P30411); experiment: BRET β-arrestin2 recruitment at the plasma membrane, B2R-transfected HEK293A cells; type: cell-based; details: HEK293-A
T8 construct: expressed in transfected cells; host or cells: HEK293A
T8 sequence (P30411 1-391): T1 sequence (P30411 1-391)
Excerpt: as §4
(§6) Since both G proteins and β-arrestins commonly participate in activation of MAPK pathways, we extended the BRET analysis to determine the effects of AltB2R on the efficacy of β-arrestin2 recruitment at the plasma membrane of HEK293A cells transfected with vectors coding for β-arrestin2-RLucII, rGFP-CAAX, and B2R or B2R^(Ø). BRET signals were monitored after addition of NG291.
as §5

[6] = target: T9, mutant human B2R(Ø) lacking AltB2R expression (β-arrestin2) (Homo sapiens, UniProt P30411); experiment: BRET β-arrestin2 recruitment at the plasma membrane, B2R(Ø)-transfected HEK293A cells; type: cell-based
T9 construct: expressed in transfected cells; host or cells: HEK293A
T9 sequence (P30411 1-391): T1 sequence (P30411 1-391)
Excerpt: as §4, §6, §5

[7] = test system: mutant human B2R(Ø) lacking AltB2R expression (ERK1/2 phosphorylation); experiment: ERK1/2 phosphorylation (AlphaLISA SureFire Ultra), B2R(Ø)- versus B2R-transfected HEK293A cells; type: cell-based; details: 1 μM agonist, n = 2
Protocol: as §1, §2

Molecule: CC(=O)Nc1ccc(/C=C/C(=O)NCC(=O)N(C)c2ccc(Cl)c(COc3cccc4ccc(C)nc34)c2Cl)cn1 [FR173657]
- binding affinity, B2R versus B2R(Ø) [1]: same affinities

Molecule: N=C(N)NCCC[C@H](NC(=O)[C@H](Cc1cccs1)NC(=O)CN(C(=O)[C@H](CO)NC(=O)[C@H](Cc1cccs1)NC(=O)CNC(=O)[C@@H]1C[C@@H](O)CN1C(=O)[C@@H]1CCCN1C(=O)[C@@H](N)CCCNC(=N)N)C1CCCCC1)C(=O)O [NG291, [Hyp^3,Thi^5,^NChg^7,Thi^8]-BK] (H-RP[Hyp]G[2Thi]S[Gly(N-cHex)][2Thi]R-OH; N-terminus and C-terminus assumed)
- Emax [2]: 22%
- potency (EC50) for IP1 formation, B2R- versus B2R(Ø)-transfected cells ([2]; comparison of EC50 between B2R and B2R(Ø), unpaired t-test): no significant difference in potencies (EC50 values)
- Emax (human B2R (Gαq)): 100 ± 10%
- Emax [3]: 74 ± 8%
- Emax (human B2R (Gαi2)): 100 ± 11%
- Emax [4]: 66 ± 12%
- Emax (human B2R (Gαi3)): 100 ± 21%
- Emax [5]: 60 ± 22%
- Emax (human B2R (β-arrestin2)): 100 ± 10%
- recruitment of β-arrestin2, cells expressing or not AltB2R ([6]; BRET, B2R versus B2R(Ø), BK: data not shown): no difference in the recruitment of β-arrestin2
- Emax ([6]; HEK293-A, β-arr2-RLuc2 and rGFP-CAAX, mean ± SD, n = 3): 88 ± 9%
- binding affinity, B2R versus B2R(Ø) [1]: same affinities
- maximal levels of phospho-ERK1/2 (AlphaLISA), B2R(Ø) versus B2R [7]: decreased maximal levels of phospho-ERK1/2

Molecule: COc1ccc(C[C@@H](CN[C@@H](CCCNC(=N)N)C(=O)O)NC(=O)[C@@H]2CCCN2C(=O)[C@H](CO)NC(=O)[C@H](Cc2cccs2)NC(=O)CNC(=O)[C@@H]2C[C@@H](O)CN2C(=O)[C@@H]2CCCN2C(=O)[C@@H](N)CCCNC(=N)N)cc1 [RMP-7, [Hyp^3,Thi^5,(4-Me)Tyr^8(ΨCH2NH)Arg^9]-BK] (HELM PEPTIDE1{R.P.[Hyp].G.[O=C([C@H](Cc1cccs1)N[*:1])[*:2]].S.P.[COc1ccc(C[C@@H](CN[C@@H](CCCNC(=N)N)C(=O)O)N[*:1])cc1]}$$$$V2.0)
- Emax [2]: 16%

Molecule: RPPGFSPFR [BK, H-Arg^1-Pro^2-Pro^3-Gly^4-Phe^5-Ser^6-Pro^7-Phe^8-Arg^9-OH]
- binding affinity, B2R versus B2R(Ø) [1]: same affinities
